Results as given in patent US11497740B2, “Use of Jumonji C demethylase inhibitors for the treatment and prevention of chemotherapy resistance and radioresistance in cancer” (THE BOARD OF REGENTS OF THE UNIVERSITY OF TEXAS SYSTEM, priority 2016, dated 2022).

What was measured:
Type in all cases: cell-based, human
H1299 T18 = experiment: MTS cell viability assay, H1299 T18 resistant variant vs H1299 Parental; conditions: for loss of cell viability: H1299 T18 and H1299 Parental; for H1299 T18 SR (Selectivity Ratio): SR = [IC50 of Parental]/[IC50 of Resistant], H1299 T18 vs H1299 Parental; for cross-resistance of paclitaxel+carboplatin resistant variants: resistant variants (FIGS. 2D, 9)
Protocol: (§1) NSCLC lines were treated with paclitaxel+carboplatin combination, given in a ˜2:3 wt/wt ratio, to mirror the clinical dosage values of ˜225 mg/m2 and ˜330 mg/m2, paclitaxel and carboplatin respectively. Note that considering the molecular weights of the two drugs, this translates to approximately a 1 to 3.4 molar ratio. Drugs were given in cycles, following a drug on/drug off treatment scheme. Each cycle consisted of 4-5 days of drug treatment and drug-free culturing for about 1-2 weeks or more to allow the surviving cells to repopulate the plate. […] Untreated parental cells were simultaneously maintained at all times for comparison. Cell viability was assessed in 96-well plates using standard MTS assays (Promega). Treatment duration in MTS assays was 4 days. Drugs were tested in two- or four-fold serial dilutions, totaling 8 different drug concentrations, with 8 replicates per concentration. Response was validated in multiple replicate plates (n≥3).
(§2) Cell viability was assessed by standard MTS assays using Promega's CellTiter reagents. Eight drug concentrations given as two- or four-fold dilutions were tested for each chemotherapeutic agent. In addition, each experiment contained eight replicates per concentration and the entire assay was performed in multiple replicates (n≥3).

HCC4017 T5 = experiment: MTS cell viability assay, HCC4017 T5 resistant variant vs parental; conditions: HCC4017 T5 and parental
Protocol: as §1, §2

H1355 T16 = experiment: MTS cell viability assay, H1355 T16 resistant variant vs H1355 Parental; conditions: for loss of cell viability: H1355 T16 and H1355 Parental; for H1355 T16 SR (Selectivity Ratio): SR = [IC50 of Parental]/[IC50 of Resistant], H1355 T16 vs H1355 Parental; for cross-resistance of paclitaxel+carboplatin resistant variant: H1355 T16
Protocol: as §1, §2

H1693 T8 = experiment: MTS cell viability assay, H1693 T8 resistant variant vs parental; conditions: H1693 T8 and parental
Protocol: as §1, §2

SMILES | H1299 T18 SR (Selectivity Ratio) (H1299 T18) | H1355 T16 SR (Selectivity Ratio) (H1355 T16) | other results
Clc1ccc(N/N=C(/c2ccccc2)c2ccccn2)nc1 (single isomer, unassigned) [Z isomer (Inactive)] | 1.1 | 1.0 | loss of cell viability (H1299 T18): no viability loss; loss of cell viability (HCC4017 T5): No loss in cell viability; loss of cell viability (H1355 T16): no loss of cell viability; loss of cell viability (H1693 T8): No loss in cell viability
NC1CC1c1ccccc1 (stereo not drawn) [2-PCPA] | 1.3 | 1.8 | 
Nc1ncn([C@@H]2O[C@H](CO)[C@@H](O)[C@H]2O)c(=O)n1 [5-azacytidine] | 0.2 | 2.6 | 
COc1cc2nc(N3CCCN(C)CC3)nc(NC3CCN(Cc4ccccc4)CC3)c2cc1OC [BIX 01294] | 0.9 | 1.9 | 
N.N.O=C([O-])C1(C(=O)[O-])CCC1.[Pt+2] [Carboplatin] | 0.8 | 1.2 | 
Nc1nccc2c1ncn2C1C=C(CO)C(O)C1O (stereo not drawn) [DZNep] | 0.5 | 1.7 | 
C/C=C1\NC(=O)[C@H]2CSSCC/C=C/[C@H](CC(=O)N[C@H](C(C)C)C(=O)N2)OC(=O)[C@H](C(C)C)NC1=O [Depsipeptide] | 0.05 | 0.03 | cross-resistance of paclitaxel+carboplatin resistant variants (H1299 T18): cross-resistant; cross-resistance of paclitaxel+carboplatin resistant variant (H1355 T16): cross-resistant
CC(=O)O[C@@]12CO[C@@H]1C[C@H](O)[C@@]1(C)C(=O)[C@H](O)C3=C(C)[C@@H](OC(=O)[C@H](O)[C@@H](NC(=O)OC(C)(C)C)c4ccccc4)C[C@@](O)([C@@H](OC(=O)c4ccccc4)[C@H]21)C3(C)C [Docetaxel] | 0.03 | 0.002 | cross-resistance of paclitaxel+carboplatin resistant variants (H1299 T18): cross-resistant; cross-resistance of paclitaxel+carboplatin resistant variant (H1355 T16): cross-resistant
COc1cccc2c1C(=O)c1c(O)c3c(c(O)c1C2=O)C[C@@](O)(C(=O)CO)C[C@@H]3O[C@H]1C[C@H](N)[C@H](O)[C@H](C)O1 [Doxorubicin] | 0.04 | 0.25 | cross-resistance of paclitaxel+carboplatin resistant variants (H1299 T18): cross-resistant; cross-resistance of paclitaxel+carboplatin resistant variant (H1355 T16): cross-resistant
O=C(/C=C/c1cccnc1)NCCCCC1CCN(C(=O)c2ccccc2)CC1 [FK866] | 0.1 | 2.1 | 
CC[C@H](C)n1cc(C)c2c(C(=O)NCc3c(C)cc(C)[nH]c3=O)cc(-c3ccc(N4CCNCC4)nc3)cc21 [GSK 126] | 1.0 | 0.8 | 
CCOC(=O)CCNc1cc(N2CCc3ccccc3CC2)nc(-c2cccnc2)n1 [GSK-J5] |  |  | loss of cell viability (H1299 T18): no effect on cell viability; loss of cell viability (H1355 T16): no loss of cell viability
CCc1c2c(nc3ccc(OC(=O)N4CCC(N5CCCCC5)CC4)cc13)-c1cc3c(c(=O)n1C2)COC(=O)[C@]3(O)CC [Irinotecan] | 1.1 | 2.7 | 
Cc1sc2c(c1C)C(c1ccc(Cl)cc1)=N[C@@H](CC(=O)OC(C)(C)C)c1nnc(C)n1-2 [JQ1] | 0.6 | 6.6 | 
CN(C)c1ccc(C(=O)NCCCCCCC(=O)NO)cc1 [M344] | 1.1 | 1.8 | 
NC1(c2ccc(-c3nc4ccn5c(=O)[nH]nc5c4cc3-c3ccccc3)cc2)CCC1 [MK-2206] | 0.7 | 1.8 | 
c1cc(SSc2ccns2)sn1 [NU 9056] | 2.0 | 1.0 | 
O=C(/C=C/N1C[C@H]2C[C@@H]1CN2c1ccccn1)c1ccccc1O [PFI 3] | 1.1 | 2.5 | 
O=C1C(=Cc2cccnc2)C(=O)c2ccccc21 [PRT 4165] | 1.0 | 1.4 | 
CC(=O)O[C@H]1C(=O)[C@@]2(C)[C@H]([C@H](OC(=O)c3ccccc3)[C@]3(O)C[C@H](OC(=O)[C@H](O)[C@@H](NC(=O)c4ccccc4)c4ccccc4)C(C)=C1C3(C)C)[C@]1(OC(C)=O)CO[C@@H]1C[C@@H]2O [Paclitaxel] | 0.03 | 0.02 | 
COc1ccc(CCc2nc3cc(-c4c(C)noc4C)ccc3n2C[C@H](C)N2CCOCC2)cc1Cl [SGC-CBP30] | 1.3 | 0.9 | 
O=C(CCCCCN1C(=O)c2cccc3cccc(c23)C1=O)NO [Scriptaid] | 1.5 | 1.4 | 
CC/C(=C(\c1ccccc1)c1ccc(OCCN(C)C)cc1)c1ccccc1 [Tamoxifen] | 1.0 | 1.0 | 
CC(/C=C/C(=O)NO)=C\[C@@H](C)C(=O)c1ccc(N(C)C)cc1 [Trichostatin A] | 1.8 | 2.6 | 
CCCC(CCC)C(=O)O [Valproic acid] | 1.4 | 1.3 | 
CCC1=C[C@@H]2CN(C1)Cc1c([nH]c3ccccc13)[C@@](C(=O)OC)(c1cc3c(cc1OC)N(C)[C@H]1[C@@](O)(C(=O)OC)[C@H](OC(C)=O)[C@]4(CC)C=CCN5CC[C@]31[C@@H]54)C2 [Vinorelbine] | 0.03 | 0.002 | cross-resistance of paclitaxel+carboplatin resistant variants (H1299 T18): cross-resistant; cross-resistance of paclitaxel+carboplatin resistant variant (H1355 T16): cross-resistant
Oc1nc(-c2ccc(C(F)(F)F)cc2)nc2c1CSCC2 [XAV939] | 2.7 | 1.0 | 
